Reference: patent US20170240864A1, “METHODS TO GENERATE PANCREATIC BETA CELLS FROM SKIN CELLS” (UNIVERSITY OF IOWA RESEARCH FOUNDATION, priority 2016, published 2017)
Entries after “also recorded” stand apart in the source; their conditions may differ.

Columns and labels:
[1] = tested on: Human iPS cell-derived IPCs; assay: Mitochondria stress test (oxygen consumption rate); format: cell-based; conditions: low glucose (2.8 mM)
Protocol: Oxygen consumption rate (OCR) was measured by using an intact-cell respirometer designed for adherent cells (Seahorse Bioscience, North Billerica, Mass.). Human iPS cell-derived IPCs were grown in special 24-well plates designed for respirometer analyses. OCR was determined in assay medium consisting of medium M199 lacking sodium bicarbonate for 60 minutes. Before analysis, IPCs within individual wells were exposed to either, low glucose (2.8 mM), high glucose (20 mM), high glucose (20 mM)+Nifedipine. […] The FCCP concentration used in these studies was determined by titration with differing amounts of the uncoupler by using the least amount required for maximal uncoupling in cells unexposed to MTQAs. OCR (pmol per minute per microgram of DNA) was determined as the average number recorded during time periods defined as intervals between the above sequential injections. Basal OCR was determined as respiration before injection of any compounds minus non-mitochondrial OCR. OCRATP was determined as basal OCR minus OCR after oligomycin injection. OCR accountable by the proton leak was calculated as OCR in the presence of oligomycin minus non-mitochondrial OCR. Maximal uncoupled respiration was calculated as OCR after FCCP minus non-mitochondrial OCR. […] ECAR was quantified simply as the recorded acidification rate during the respiratory conditions delineated above.

ND iPS cells [2] = assay: Insulin flow cytometry at end of Stage 5, ND cultures; format: cell-based, human
Protocol: (§1) FIGS. 18A-18B. […] To address whether demethylation enhances the yield of Pdx1+ cells and insulin+ cells from ND iPS cells, in parallel, differentiations of ND iPS cells, treated with or without 10 nM 5-aza-DC for 18 h on day 4 of differentiation (n=2) were established. Controls for staining were iPS cells (negative) and βTC3 mouse insulinoma cells (positive). […] Thus, demethylation enhances the differentiation into IPCs of specifically T1D iPS cells but not ND iPS cells. This is likely because there are specific gene loci on T1D cells that are aberrantly methylated, which is corrected by transient 5-aza-DC treatment.
(§2) For assessment of expression of pancreatic hormones insulin and glucagon, matrigel-seeded differentiating cell clusters on differentiation D27 (end of stage 5) were recovered by treatment with Dispase (Catalog Number: 354235, BD Biosciences, San Jose, Calif.) for 5 minutes at 37° C., followed by gentle suspension to further break down the matrigel. After washing with 1×PBS and centrifugation, the cell clusters were incubated with TrypLE Express for 5-10 minutes at room temperature. Following gentle resuspension and centrifugation, the cells were permeabilized via saponin using the BD Cytofix/Cytoperm Kit (Catalog Number: 554714, BD Biosciences, San Jose, Calif.). […]

ND iPS cells [3] = assay: Pdx1 flow cytometry, ND cultures; format: cell-based, human; conditions: 10 nM for 18 h on day 4
Protocol: as §1
as §2, with “transcription factors (Pdx1, Nkx6.1” for “hormones insulin”, “NeuroD1),” for “glucagon,”, “D15” for “D27”, “4)” for “5)”, “permeabilized” for “permeabilized via saponin”, “methanol as described below.” for “the BD Cytofix/Cytoperm Kit (Catalog Number: 554714, BD Biosciences, San Jose, Calif.).”

[4] = tested on: T1D DE cells (T1D iPS cell-derived); assay: Pdx1 flow cytometry at end of Stage 4, T1D cultures; format: cell-based, human; conditions: T1D DE cells demethylated on day 4 for 18 h
Protocol: (§3) After completing 4 days of differentiation in DE differentiation media, the cells were treated with fresh media supplemented with 5-aza-DC. The 5-aza-DC was treated for 18 hours, which spanned the last day of DE differentiation, before being washed with warm DMEM F/12 three times and harvested as described in the next section for initiating 3D differentiation into pancreatic precursor cells.
For assessment of expression of pancreatic transcription factors (Pdx1, Nkx6.1 and NeuroD1), matrigel-seeded differentiating cell clusters on differentiation D15 (end of stage 4) were recovered by treatment with Dispase (Catalog Number: 354235, BD Biosciences, San Jose, Calif.) for 5 minutes at 37° C., followed by gentle suspension to further break down the matrigel. After washing with 1×PBS and centrifugation, the cell clusters were incubated with TrypLE Express for 5-10 minutes at room temperature. Following gentle resuspension and centrifugation, the cells were permeabilized using methanol as described below. The cells were fixed in 2% paraformaldehyde in PBS for 10 minutes at 37° C., followed by centrifugation, and resuspension of the vortexed cells in 1 mL of chilled Perm Buffer III (Catalog Number: 558050, BD Biosciences, San Jose, Calif.). The cells were incubated for 30 minutes on ice in sealed tubes. […]

[5] = tested on: 5-methylcytosine content of gDNA of T1D iPS cells; assay: Dot blot for 5-methylcytosine on gDNA; format: cell-based, human
Protocol: FIGS. 14A-14B. Selection of the optimal dose of 5-aza-DC to demethylate iPS cells while ensuring maximal cell viability. FIG. 14A) Every cell type has a unique tolerance to 5-aza-DC, which is toxic at high doses. In order to identify an optimal dose of 5-aza-DC that would maintain integrity of the cells while demethylating effectively, a dose screen experiment was conducted on T1D iPS cells (n=2), observing the quality of the colonies and degree of cell death over 4 days after 18 hours of treatment with various doses of 5-aza-DC. […] FIG. 14B) To confirm that those low doses would still demethylate cells, a dot blot for 5-methylcytosine was performed on gDNA isolated from untreated T1D iPS cells or iPS cells that were treated with 1 nM or 10 nM 5-aza-DC (n=3).
To detect the effectiveness of demethylation treatment, dot blots were performed on genomic DNA (gDNA) samples isolated from demethylated and nondemethylated control iPS cells to determine levels of 5-methylcytosine (5-MC). gDNA was isolated using the DNeasy Blood & Tissue Kit (Qiagen, Valencia, Calif.). […] Finally, HRP signal was detected with a 5 minute incubation at room temperature in Amersham ECL Prime solution (Catalog Number: RPN2232, GE Healthcare, Pittsburgh, Pa.) and processed via X-ray films.

[6] = tested on: T1D DE cells (T1D iPS cell-derived); assay: Insulin and glucagon flow cytometry at end of Stage 5, T1D cultures; format: cell-based, human; conditions: for number of glucagon-expressing cells: T1D cultures, concentration-dependent
Protocol: as §3
For assessment of expression of pancreatic hormones insulin and glucagon, matrigel-seeded differentiating cell clusters on differentiation D27 (end of stage 5) were recovered by treatment with Dispase (Catalog Number: 354235, BD Biosciences, San Jose, Calif.) for 5 minutes at 37° C., followed by gentle suspension to further break down the matrigel. After washing with 1×PBS and centrifugation, the cell clusters were incubated with TrypLE Express for 5-10 minutes at room temperature. Following gentle resuspension and centrifugation, the cells were permeabilized via saponin using the BD Cytofix/Cytoperm Kit (Catalog Number: 554714, BD Biosciences, San Jose, Calif.). For insulin staining, the cells were incubated with anti-inulin-PE for 30 minutes in the dark at room temperature before being washed and resuspended in 1×PBS for flow cytometric analysis. For glucagon staining, the cells were incubated with purified rabbit anti-human glucagon for 30 minutes in the dark at room temperature before being washed and incubated with anti-rabbit APC (1:100) for an additional 30 minutes in the dark at room temperature. Subsequently, the cells were washed and resuspended in 1×PBS for flow cytometric analysis.

[7] = tested on: T1D iPS cell-derived cell clusters; assay: Cluster morphology and dithizone staining of T1D IPC cultures; format: cell-based, human
Protocol: Freshly prepared dithizone solution was used for all experiments. First, 20 mg of dithizone (Catalog Number: D5130, Sigma-Aldrich, St. Louis, Mo.) was added to 0.6 mL of 95% ethanol in a 15 mL conical tube. Subsequently, 1-5 drops of ammonium hydroxide was added and the resulting orange stock mixture was vortexed thoroughly until completely dissolved. 0.3 mL of this stock solution was dispensed in 99.7 mL of 1×PBS and the pH was adjusted to 7.4 with 1N HCl. Islets (supplied by the IIDP) or picked IPC clusters were added to separate wells each containing 200 μL of the final dithizone solution in a 96 well plate. The cell clusters were incubated for 2-5 minutes before images were captured using a standard light microscope (Nikon Eclipse, TS100) attached to a color camera.
A full differentiation of T1D iPS cells into IPCs was initiated, demethylating the DE cells on day 4 for 18 hours before transferring them onto matrigel. A striking impact of the demethylation treatment in the T1D cultures was observed. Typically, T1D iPS cells gave rise to a disorganized mix of cysts and spheroids, with a dominant presence of hollow cysts. […] Next, these cell clusters were stained with dithizone, which when positive points to the presence of insulin Shiroi et al., 2002).

[8] = tested on: T1D iPS cells differentiating into DE cells; assay: Definitive endoderm marker flow cytometry after demethylation (CXCR4, Sox17, PDGFR-α); format: cell-based, human
Excerpt: FIG. 15. Demethylation on DO of differentiation arrests cells in a CXCR4+ PDGFRα+ Sox17− mesendodermal state. In order to identify the optimal time point at which demethylation should be initiated, two parallel differentiations of T1D iPS cells into DE cells were established. In one differentiation, the culture was exposed to 5-aza-DC on day 0 (which is the day that DE differentiation is initiated), whereas the other culture was demethylated at day 4 of differentiation (which is the last day of DE culture). At the end of the differentiations, the efficacy of DE cell differentiation was determined by studying the expression of CXCR4, PDGFR-α, and Sox17. Undifferentiated iPS cells (red plot) served as a negative control for all of these cell markers. […] In contrast, demethylation of the cells on day 4 (blue plot) generated >90% CXCR4+ Sox17+ PDGFR-α− cells, representing true DE cells. […] Besides, after formation of the DE, the cells have a higher proliferative rate. Thus, temporal control of the demethylation treatment ensures enhanced differentiation outcomes.
as §3
For assessment of DE differentiation efficiency, cells from D5 of differentiation (end of stage 1) were incubated at room temperature for 2-5 minutes with TrypLE Express (Invitrogen, Grand Island, N.Y.), dissociated into a single cell suspension, filtered through a 70 μm mesh and washed with 1×PBS (Invitrogen, Grand Island, N.Y.) before being distributed into FACS tubes. […]

[9] = demethylation on day 4 of differentiation

| SMILES | effect on oxygen consumption [1] | yield of insulin-expressing cells, treated versus untreated (ND iPS cells [2]; 10 nM for 18 h on day 4) | yield of Insulin+ cells at the end of Stage 5 (ND iPS cells [2]; unchanged after treatment) | yield of Pdx1+ cells, treated versus untreated (ND iPS cells [3]) | Pdx1+ cells at the end of Stage 4 [4] | demethylation (5-methylcytosine dot blot) ([5]; 1 nM) | demethylation (5-methylcytosine dot blot) ([5]; 10 nM) | insulin-expressing cells ([6]; T1D cultures treated with 5-Aza-DC, n=5) | number of glucagon-expressing cells [6] | number of glucagon-expressing cells ([6]; listed as 5-Aza-DC) | insulin+ cells, highest measured in some cultures ([6]; T1D, 10 nM, repeated experiments) | cells expressing insulin ([6]; T1D, dose of 10 nM) | augmentation of yield of IPCs versus untreated ([6]; T1D-1 DE cells, pooled experiments, untreated n=3, demethylated n=5) | cluster morphology ([7]; T1D DE cells treated on day 4, both doses (1 nM, 10 nM)) | dithizone staining of clusters ([7]; T1D cultures treated with 5-aza-DC) | marker phenotype of resulting cells ([8]; demethylation on day 0 of differentiation) | CXCR4+ Sox17+ PDGFR-α− cells [8, 9] | marker phenotype of resulting cells [8, 9] |
| --- | --- | --- | --- | --- | --- | --- | --- | --- | --- | --- | --- | --- | --- | --- | --- | --- | --- | --- |
| CC(C)Cn1c(=O)n(C)c(=O)c2[nH]cnc21 [IBMX, 3-isobutyl-1-methylxanthine] | could not be increased; also recorded: could not be elevated |  |  |  |  |  |  |  |  |  |  |  |  |  |  |  |  |  |
| Nc1ncn([C@H]2C[C@H](O)[C@@H](CO)O2)c(=O)n1 [5-aza-DC, 5-aza-2′-deoxycytidine] |  | equivalent yield | 25% | not significantly different | > 95% | effectively demethylate | effectively demethylate | 56.7-59.4% | nearly all the glucagon secreting cells are gone | drastic decline | ≤ 65% | 56% | ~4 fold | promoted the formation of compact cell clusters that uniquely resembled human islets; also recorded: promotes the formation of compact clusters | strong red color | arrested in the immature CXCR4^+ PDGFRα^+ Sox17^− mesendodermal state; also recorded: CXCR4+ PDGFR-α+ Sox17− | > 90% | pure population of CXCR4^+ Sox17^+ PDGFRα^− DE cells |
